Read-outs that look alike come from different tables or passages of the source.
Tests used:
[1] = target: Beta Secretase enzyme (BACE) (Homo sapiens, UniProt P56817); assay: In vitro enzymatic BACE FRET (fluorescence resonance energy transfer) assay; type: biochemical
How it was run: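 Buffer 0.05 M acetate pH 4.2, 10% DMSO final, 100 uM genapol (sub-CMC); start with 50 nM FRET substrate; 1 h incubation; Tris stop; fluorescence read.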

[2] = test system: Aβ40 in conditioned medium of cells stably expressing Amyloid Precursor Protein (APP); assay: In vitro BACE cell-based assay (Aβ40 in conditioned medium, sandwich ELISA)
How it was run: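 Secreted Aβ40 is captured with pAb40 and detected with biotinylated 6E10, read by europium time-resolved fluorescence. IC50 comes from percent inhibition versus concentration.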

[3] = average IC50, enzyme assay, read-out: BACE 1 FRET assay
[4] = Homo sapiens, HEK293, average IC50, read-out: HEK cell assay
[5] = Homo sapiens, HEK293, average IC50, HEK cells, read-out: HEK cell assay

Beta Secretase enzyme (BACE), sequence (P56817 46-501, species assumed): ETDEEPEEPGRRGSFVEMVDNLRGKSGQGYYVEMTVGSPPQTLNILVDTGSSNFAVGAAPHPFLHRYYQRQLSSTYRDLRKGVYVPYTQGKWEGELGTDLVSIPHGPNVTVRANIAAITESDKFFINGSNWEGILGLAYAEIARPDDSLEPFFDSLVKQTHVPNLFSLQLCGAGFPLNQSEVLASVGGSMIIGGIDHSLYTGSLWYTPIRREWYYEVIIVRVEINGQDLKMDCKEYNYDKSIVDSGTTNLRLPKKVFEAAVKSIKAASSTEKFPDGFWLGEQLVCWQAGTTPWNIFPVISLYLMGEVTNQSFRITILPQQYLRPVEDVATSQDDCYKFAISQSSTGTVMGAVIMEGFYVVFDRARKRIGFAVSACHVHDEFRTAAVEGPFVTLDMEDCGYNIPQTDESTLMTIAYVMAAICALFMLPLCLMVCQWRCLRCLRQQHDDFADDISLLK

SMILES | IC50 [1, 3] [µM] | IC50 [2, 4] [µM] | IC50 [2, 5] [µM] | also measured
CC(C)(C#N)COc1cc(F)c2c(c1)[C@]1(COC(N)=N1)c1cc(-c3cccnc3)ccc1O2 [Example 257, 3-(((4S)-2-amino-4′-fluoro-7′-(3-pyridinyl)spiro[1,3-oxazole-4,9′-xanthen]-2′-yl)oxy)-2,2-dimethylpropanenitrile] | 0.001 | 0.0063 |  | 
NC1=N[C@@]2(CO1)c1cc(-c3cccnc3F)ccc1Oc1c(F)cc(-c3ccnnc3)cc12 [Example 686, (4S)-4′-fluoro-7′-(2-fluoro-3-pyridinyl)-2′-(4-pyridazinyl)spiro[1,3-oxazole-4,9′-xanthen]-2-amine] | 0.0008 |  | 0.012 | 
CC#Cc1cncc(-c2ccc3c(c2)C2(COC(N)=N2)c2cc(C4CCOCC4)nc(F)c2O3)c1 (centres unmarked) [Example 750, 1-fluoro-7-(5-(1-propyn-1-yl)-3-pyridinyl)-3-(tetrahydro-2H-pyran-4-yl)spiro[chromeno[2,3-c]pyridine-5,4′-[1,3]oxazol]-2′-amine] | 0.0007 | 0.004 |  | 
NC1=N[C@]2(CO1)c1cc(C3=CCCOC3)ccc1Oc1cc(F)c(-c3cncnc3)cc12 [Example 514, (4R)-7′-(5,6-dihydro-2H-pyran-3-yl)-3′-fluoro-2′-(5-pyrimidinyl)spiro[1,3-oxazole-4,9′-xanthen]-2-amine] | 0.0026 |  | 0.0114 | 
NC1=N[C@@]2(CO1)c1cc(-c3cccnc3F)c(F)cc1Oc1c(F)cc(C3=CCCOC3)cc12 [Example 865, (4S)-7′-(5,6-dihydro-2H-pyran-3-yl)-3′,5′-difluoro-2′-(2-fluoro-3-pyridinyl)spiro[1,3-oxazole-4,9′-xanthen]-2-amine] | 0.0003 |  | 0.005 | 
CC1(COc2cc(F)c3c(c2)[C@]2(COC(N)=N2)c2cc(-c4cncc(C#N)c4)ccc2O3)COC1 [Example 552, 5-((4S)-2-amino-5′-fluoro-7′-((3-methyl-3-oxetanyl)methoxy)spiro[1,3-oxazole-4,9′-xanthen]-2′-yl)-3-pyridinecarbonitrile] | 0.0009 |  | 0.0031 | 
COc1ncccc1-c1ccc2c(c1)[C@@]1(COC(N)=N1)c1cc(C3=CCOCC3)ncc1O2 [Example 240, (5S)-3-(3,6-dihydro-2H-pyran-4-yl)-7-(2-methoxy-3-pyridinyl)spiro[chromeno[2,3-c]pyridine-5,4′-[1,3]oxazol]-2′-amine] | 0.0173 | 0.108 |  | 
Cc1ccc(-c2cc(F)c3c(c2)[C@]2(COC(N)=N2)c2cc(-c4cncc(F)c4)ccc2O3)nn1 [Example 292, (4S)-4′-fluoro-7′-(5-fluoro-3-pyridinyl)-2′-(6-methyl-3-pyridazinyl)spiro[1,3-oxazole-4,9′-xanthen]-2-amine] | 0.002 | 0.0316 |  | 
CC1(C)C[C@@H](c2cnc3c(c2)[C@]2(COC(N)=N2)c2cc(-c4cccc(C#N)c4)ccc2O3)CCO1 [Example 472, 3-((5S)-2′-amino-3-((4S)-2,2-dimethyltetrahydro-2H-pyran-4-yl)spiro[chromeno[2,3-b]pyridine-5,4′-[1,3]oxazol]-7-yl)benzonitrile] | 0.0023 |  | 0.0044 | 
Cc1cc(-c2cc3c(cn2)Oc2ccc(-c4ccccc4)cc2[C@@]32COC(N)=N2)on1 [Example 366, (5S)-3-(3-methyl-5-isoxazolyl)-7-phenylspiro[chromeno[2,3-c]pyridine-5,4′-[1,3]oxazol]-2′-amine] | 0.0801 | 0.361 |  | 
NC1=N[C@@]2(CS1)c1cc(-c3cccnc3F)ccc1Oc1c2cc(Cl)nc1F [Example 1024, (5S)-3-chloro-1-fluoro-7-(2-fluoro-3-pyridinyl)spiro[chromeno[2,3-c]pyridine-5,4′-[1,3]thiazol]-2′-amine] | 0.0066 | 1.44 |  | 
CC1(C#Cc2cc3c(cn2)Oc2ccc(-c4cccc(C#N)c4)cc2[C@@]32COC(N)=N2)COC1 [Example 164, 3-((5S)-2′-amino-3-((3-methyl-3-oxetanyl)ethynyl)spiro[chromeno[2,3-c]pyridine-5,4′-[1,3]oxazol]-7-yl)benzonitrile] | 0.0023 | 0.0189 |  | 
Cc1ccc(-c2cc3c(cn2)Oc2ccc(-c4cncc(Cl)c4)cc2[C@@]32COC(N)=N2)cn1 [Example 227, (5S)-7-(5-chloro-3-pyridinyl)-3-(6-methyl-3-pyridinyl)spiro[chromeno[2,3-c]pyridine-5,4′-[1,3]oxazol]-2′-amine] | 0.0014 | 0.0071 |  | 
COc1nc(C2=CCOCC2)cc2c1Oc1ccc(-c3cccnc3F)cc1[C@@]21COC(N)=N1 [Example 832, (5S)-3-(3,6-dihydro-2H-pyran-4-yl)-7-(2-fluoro-3-pyridinyl)-1-methoxyspiro[chromeno[2,3-c]pyridine-5,4′-[1,3]oxazol]-2′-amine] |  |  |  | IC50 ([1]; BACE 1 FRET assay (uM)): 0.0007 µM; IC50 ([2]; Homo sapiens, HEK293, read-out: HEK cell assay (uM), average IC50, HEK cell assay): 0.032 µM
NC1=N[C@@]2(CS1)c1cc(-c3cccnc3F)ccc1Oc1cnc([C@H]3CCCOC3)cc12 [Example 932, (5S)-7-(2-fluoro-3-pyridinyl)-3-((3R)-tetrahydro-2H-pyran-3-yl)spiro[chromeno[2,3-c]pyridine-5,4′-[1,3]thiazol]-2′-amine] | 0.0162 |  | 0.208 | 
COc1cc(F)c2c(c1)[C@@]1(COC(N)=N1)c1cc(Br)c(F)cc1O2 [Example 524, (4R)-2′-bromo-3′,5′-difluoro-7′-methoxyspiro[1,3-oxazole-4,9′-xanthen]-2-amine] | 1.14 |  | 1.31 | 
NC1=N[C@@]2(CO1)c1cc(-c3cccnc3F)ccc1Oc1c(F)cc([C@H]3CCCOC3)cc12 [Example 287, (4S)-4′-fluoro-7′-(2-fluoro-3-pyridinyl)-2′-((3R)-tetrahydro-2H-pyran-3-yl)spiro[1,3-oxazole-4,9′-xanthen]-2-amine] | 0.0017 | 0.0217 |  | 
NC1=N[C@@]2(CO1)c1cc(-c3ccc(N4CCC(F)(F)C4)nc3)ccc1Oc1cnc(N3CCC(F)(F)C3)cc12 [Example 423, (5S)-3-(3,3-difluoro-1-pyrrolidinyl)-7-(6-(3,3-difluoro-1-pyrrolidinyl)-3-pyridinyl)spiro[chromeno[2,3-c]pyridine-5,4′-[1,3]oxazol]-2′-amine] | 0.458 |  | 0.402 | 
CC1(C)C=C(c2cc3c(cn2)Oc2ccc(-c4cncnc4)cc2[C@@]32COC(N)=N2)CCO1 [Example 678, (5S)-3-(6,6-dimethyl-3,6-dihydro-2H-pyran-4-yl)-7-(5-pyrimidinyl)spiro[chromeno[2,3-c]pyridine-5,4′-[1,3]oxazol]-2′-amine] |  |  |  | IC50 ([1]; BACE 1 FRET assay (uM)): 0.0009 µM; IC50 ([2]; average IC50, HEK cells): 0.008 µM
CC1(C)CC(c2cnc3c(c2)[C@@]2(COC(N)=N2)c2c(ccc(-c4cncnc4)c2F)O3)=CCO1 [Example 355, (5S)-3-(2,2-dimethyl-3,6-dihydro-2H-pyran-4-yl)-6-fluoro-7-(5-pyrimidinyl)spiro[chromeno[2,3-b]pyridine-5,4′-[1,3]oxazol]-2′-amine] | 0.407 | 1.28 |  | 
NC1=N[C@@]2(CS1)c1cc(-c3cncnc3)c(F)cc1Oc1c(F)cc(N3CCOCC3)cc12 [Example 888, (4S)-3′,5′-difluoro-7′-(4-morpholinyl)-2′-(5-pyrimidinyl)spiro[1,3-thiazole-4,9′-xanthen]-2-amine] | 0.0021 |  | 0.01 | 
CC1(C)CC(c2cc3c(cn2)Oc2ccc(-c4cncnc4)cc2[C@@]32COC(N)=N2)=CCO1 [Example 679, (5S)-3-(2,2-dimethyl-3,6-dihydro-2H-pyran-4-yl)-7-(5-pyrimidinyl)spiro[chromeno[2,3-c]pyridine-5,4′-[1,3]oxazol]-2′-amine] | 0.0016 |  | 0.014 | 
CC#Cc1cnc(F)c(-c2ccc3c(c2)[C@@]2(COC(N)=N2)c2cc(-c4cnn(C)c4)cnc2O3)c1 [Example 954, (5S)-7-(2-fluoro-5-(1-propyn-1-yl)-3-pyridinyl)-3-(1-methyl-1H-pyrazol-4-yl)spiro[chromeno[2,3-b]pyridine-5,4′-[1,3]oxazol]-2′-amine] | 0.0003 |  | 0.003 | 
CC1(C#Cc2cnc3c(c2)[C@]2(COC(N)=N2)c2cc(-c4cncc(Cl)c4)ccc2O3)COC1 [Example 186, (5S)-7-(5-chloro-3-pyridinyl)-3-((3-methyl-3-oxetanyl)ethynyl)spiro[chromeno[2,3-b]pyridine-5,4′-[1,3]oxazol]-2′-amine] | 0.0005 | 0.003 |  | 
NC1=N[C@@]2(CO1)c1cc(-c3cncc(F)c3)ccc1Oc1c(F)cc(N3C[C@@H]4C[C@H]3CO4)cc12 [Example 276, (4S)-4′-fluoro-7′-(5-fluoro-3-pyridinyl)-2′-((1S,4S)-2-oxa-5-azabicyclo[2.2.1]hept-5-yl)spiro[1,3-oxazole-4,9′-xanthen]-2-amine] | 0.0008 | 0.0033 |  | 
N#Cc1cccc(-c2ccc3c(c2)[C@@]2(COC(N)=N2)c2cc(C4=CCOCC4)ncc2O3)c1 [Example 143, 3-((5S)-2′-amino-3-(3,6-dihydro-2H-pyran-4-yl)spiro[chromeno[2,3-c]pyridine-5,4′-[1,3]oxazol]-7-yl)benzonitrile] | 0.0011 | 0.0094 |  | 
NC1=N[C@@]2(CO1)c1cc(-c3cncc(Cl)c3)ccc1Oc1c(F)cc(OCC3CCOCC3)cc12 [Example 211, (4S)-7′-(5-chloro-3-pyridinyl)-4′-fluoro-2′-(tetrahydro-2H-pyran-4-ylmethoxy)spiro[1,3-oxazole-4,9′-xanthen]-2-amine] | 0.0006 | 0.0082 |  | 
NC1=N[C@@]2(CO1)c1cc(-c3cccnc3N3CCC(F)(F)CC3)ccc1Oc1ncc(N3CCC(F)(F)CC3)cc12 [Example 477, (5S)-3-(4,4-difluoro-1-piperidinyl)-7-(2-(4,4-difluoro-1-piperidinyl)-3-pyridinyl)spiro[chromeno[2,3-b]pyridine-5,4′-[1,3]oxazol]-2′-amine] | 0.33 |  | 1.2 | 
